{
  "source": "patent US20160074467A1",
  "about": "“TREATMENT OF AGING EFFECTS BY GONADOTROPIN-RELEASING HORMONE, NEUROGENESIS OR BRAIN IKK BETA/NF-KAPPAB INHIBITION” (ALBERT EINSTEIN COLLEGE OF MEDICINE, INC., priority 2013, published 2016)",
  "key": {"[1]": {"tested_on": "neurogenesis in the MBH and dentate gyrus", "assay": "BrdU labelling neurogenesis assay with i.c.v. GnRH in old mice", "assay_type": "in vivo", "settings": "old C57BL/6 mice; GnRH 1 ng per day i.c.v. (third ventricle); single BrdU injection, 7 days; vs vehicle; FIG. 6a-c", "experimental": "(§1) Immunostaining, histology and western blot. Mice under anaesthesia were perfused with 4% paraformaldehyde, and brains were removed, post-fixed in 4% paraformaldehyde, and infiltrated in 20-30% sucrose. Brain sections were made at 10-μm thickness via a cryostat, blocked with serum, penetrated with Triton-X 100, treated overnight at 4° C. with primary antibody, followed by reaction with fluorescence-conjugated secondary antibody (Jackson), and imaged under a confocal microscope. For BrdU staining, sections were pre-treated with 1 M HCl for 30 min at 37° C., followed by 5-min treatment with 0.1 M sodium borate, pH 8.5. Primary antibodies included rabbit anti-Iba-1 (Wako), rabbit anti-GFAP (Millipore), mouse anti-TNF-α (Abcam), mouse anti-NeuN (Millipore), and goat anti-Cre antibody (Santa Cruz). For Nissl staining, freshly isolated mice brains were fixed in 4% paraformaldehyde in PBS for overnight at 4° C. The fixed whole brains were then subjected to cryosectioning coronally, and frozen sections were stained to detect Nissl body by using the NovaUltra Nissl stain kit (IHCWORLD) according to the manufacturer's instruction.\n(§2) Serial brain sections across the MBH were made at 20 μm thickness, and every five sections were represented by one section with staining and cell counting. […]"}, "[2]": {"tested_on": "aging physiology and histology", "assay": "Daily subcutaneous GnRH therapy: aging physiology and histology (muscle endurance, skeletal muscle fibers, dermal thickness)", "assay_type": "in vivo, C57BL/6 mice", "experimental": "(§3) For animal GnRH therapy, mice were subcutaneously injected with GnRH (Sigma) at the dose of 2 ng per mouse on a daily basis for a period of 5-8 weeks. The Institutional Animal Care and Use Committee at the Albert Einstein College of Medicine approved all the procedures. Body weight and food intake were measured regularly using a laboratory scale. The grip test was performed to measure muscle endurance using the method as similarly described in the literature^36,37, using a homemade square grid with a small mesh size to allow mice to hang for longer time. In brief, a mouse was lifted by the tail and placed on a homemade square grid (1-cm mesh size). The grid was then inverted 30.5 cm over a soft pad, and the mouse was allowed to hang by paws for a maximum of 5 min. The time that the mouse was able to hang was recorded during a 5-min test period.\nTissue histology. Skeletal muscles (quadriceps) and dorsal skin were dissected from mice, fixed in 10% neutralized formalin at 4° C. overnight, and embedded into paraffin. Paraffin sections were prepared at 5-μm thickness and subjected to haematoxylin and eosin staining. Images were collected using an Axioskop II light microscope (Zeiss) and analyzed using Image J."}, "[3]": {"tested_on": "aging-related cognitive decline", "assay": "Daily subcutaneous GnRH therapy: cognition", "assay_type": "in vivo, C57BL/6 mice", "settings": "old MBH-ctrl and MBH-IKK-β mice; peripheral (s.c.) GnRH daily, 5 weeks; FIG. 6i", "experimental": "as §3\nCognitive behavioral tests. […]\nHidden-platform training. […] Mice were expected to find the location of the invisible platform, and measured for latency to reach the platform, distance travelled to reach the platform, path efficiency, time spent in and distance travelled in each quadrant as well as total distance and mean swim speed.\nProbe trial. […] Mice were measured for the amount of time spent in all quadrants, distance and number of times that mice crossed the location of the former platform, and total distance and mean swim speed. […]"}, "[4]": {"tested_on": "BrdU-labelled cells in the MBH and dentate gyrus", "assay": "BrdU labelling survival assay with i.c.v. GnRH in old mice", "assay_type": "in vivo", "settings": "old C57BL/6 mice; GnRH 1 ng per day i.c.v.; 7 days of daily BrdU injections, thirty-day tracking; FIG. 6d, e", "experimental": "as §1, §2"}},
  "note": "Ends that are not written are not given here.",
  "data": [
    {"substance": "gonadotropin-releasing hormone (QHWSYGLRPG; ends and bridges not checked; UniProt P01148 24-33, looked up) [GnRH, gonadotropin-releasing hormone (GnRH), obtained from Sigma]", "values": [
      {"measurement": "aging-diminished neurogenesis (BrdU-labelled cells in hypothalamus and hippocampus)", "setting": "[1]", "result": "substantially reversed"},
      {"measurement": "anti-aging phenotype", "setting": "[2]; MBH-IκB-α mice treated with GnRH, data not shown", "result": "did not further enhance the anti-aging phenotype"},
      {"measurement": "pro-aging phenotype (muscle endurance, muscle fibers, dermal thickness)", "setting": "[2]; old MBH-IKK-β mice, GnRH 2 ng per mouse s.c. daily, 5 weeks, FIG. 6f-h", "result": "abrogated the pro-aging phenotype"},
      {"measurement": "magnitude of aging histology (muscle endurance, muscle fibers, dermal thickness)", "setting": "[2]; old MBH-ctrl mice, GnRH 2 ng per mouse s.c. daily, 5 weeks, FIG. 6f-h", "result": "reduced the magnitude of aging histology"},
      {"measurement": "aging-related cognitive decline", "setting": "[3]", "result": "amelioration of aging-related cognitive decline"},
      {"measurement": "survival of BrdU-labelled cells in MBH and dentate gyrus", "setting": "[4]", "result": "significantly survived"}
    ]}
  ]
}
